Like-named read-outs stand apart in the source and are kept apart here.
Assays:
Assay in all cases: biochemical
Assay type in all cases: binding
468 kinases [1] = target: 468 kinases (Homo sapiens, UniProt O75676); conditions: read-out: % Inhibition @ 100 nM
468 kinases [2] = target: 468 kinases (Homo sapiens, UniProt P42685); conditions: FRK; read-out: % Inhibition @ 100 nM
468 kinases [3] = target: 468 kinases (Homo sapiens, UniProt P42681); conditions: TXK; read-out: % Inhibition @ 100 nM
468 kinases [4] = target: 468 kinases (Homo sapiens, UniProt Q9H2K8); conditions: TAOK3; read-out: % Inhibition @ 100 nM
468 kinases [5] = target: 468 kinases (Homo sapiens, UniProt P07948); conditions: LYN; read-out: % Inhibition @ 100 nM
468 kinases [6] = target: 468 kinases (Homo sapiens, UniProt P00519, F317L); conditions: read-out: % Inhibition @ 100 nM
468 kinases [7] = target: 468 kinases (Homo sapiens, UniProt Q9UQB9); conditions: AURKC; read-out: % Inhibition @ 100 nM
468 kinases [8] = target: 468 kinases (Homo sapiens, UniProt Q15375); conditions: EPHA7; read-out: % Inhibition @ 100 nM
468 kinases [9] = target: 468 kinases (Homo sapiens, UniProt Q9UBE8); conditions: NLK; read-out: % Inhibition @ 100 nM
468 kinases [10] = target: 468 kinases (Homo sapiens, UniProt Q9BZL6); conditions: PRKD2; read-out: % Inhibition @ 100 nM
468 kinases [11] = target: 468 kinases (Homo sapiens, UniProt Q9UHD2); conditions: TBK1; read-out: % Inhibition @ 100 nM
468 kinases [12] = target: 468 kinases (Homo sapiens, UniProt Q9UM73); conditions: ALK; read-out: % Inhibition @ 100 nM
468 kinases [13] = target: 468 kinases (Homo sapiens, UniProt Q9UKE5); conditions: TNIK; read-out: % Inhibition @ 100 nM
468 kinases [14] = target: 468 kinases (Homo sapiens, UniProt O00750); conditions: PIK3C2B; read-out: % Inhibition @ 100 nM
468 kinases [15] = target: 468 kinases (Homo sapiens, UniProt P42338); conditions: PIK3CB; read-out: % Inhibition @ 100 nM
468 kinases [16] = target: 468 kinases (Homo sapiens, UniProt Q9BYT3); conditions: STK33; read-out: % Inhibition @ 100 nM
468 kinases [17] = target: 468 kinases (Homo sapiens, UniProt O14965); conditions: AURKA; read-out: % Inhibition @ 100 nM
468 kinases [18] = target: 468 kinases (Homo sapiens, UniProt P00519, M351T); conditions: ABL1 (M351T)-phosphorylated; read-out: % Inhibition @ 100 nM
468 kinases [19] = target: 468 kinases (Homo sapiens, UniProt Q04912); conditions: MST1R; read-out: % Inhibition @ 100 nM
468 kinases [20] = target: 468 kinases (Homo sapiens, UniProt Q13153); conditions: PAK1; read-out: % Inhibition @ 100 nM
468 kinases [21] = target: 468 kinases (Homo sapiens, UniProt Q13523); conditions: PRP4; read-out: % Inhibition @ 100 nM
468 kinases [22] = target: 468 kinases (Homo sapiens, UniProt P36888); conditions: read-out: % Inhibition @ 100 nM
468 kinases [23] = target: 468 kinases (Homo sapiens, UniProt Q04771); conditions: ACVR1; read-out: % Inhibition @ 100 nM
468 kinases [24] = target: 468 kinases (Homo sapiens, UniProt Q9NRP7); conditions: STK36; read-out: % Inhibition @ 100 nM
468 kinases [25] = target: 468 kinases (Homo sapiens, UniProt Q15831); conditions: LKB1; read-out: % Inhibition @ 100 nM
468 kinases [26] = target: 468 kinases (Homo sapiens, UniProt Q9HBY8); conditions: SGK2; read-out: % Inhibition @ 100 nM
468 kinases [27] = target: 468 kinases (Homo sapiens, UniProt Q9NYY3); conditions: PLK2; read-out: % Inhibition @ 100 nM
468 kinases [28] = target: 468 kinases (Homo sapiens, UniProt P51812); conditions: read-out: % Inhibition @ 100 nM
468 kinases [29] = target: 468 kinases (Homo sapiens, UniProt Q9UM73, C1156Y); conditions: ALK(C1156Y); read-out: % Inhibition @ 100 nM
468 kinases [30] = target: 468 kinases (Homo sapiens, UniProt Q8N5S9); conditions: CAMKK1; read-out: % Inhibition @ 100 nM
468 kinases [31] = target: 468 kinases (Homo sapiens, UniProt O43353); conditions: RIPK2; read-out: % Inhibition @ 100 nM
468 kinases [32] = target: 468 kinases (Homo sapiens, UniProt P10721); conditions: KIT; read-out: % Inhibition @ 100 nM

SMILES | inhibition at 0.1 µM (468 kinases [1]; RPS6KA4(Kin.Dom.1-N-terminal)) | inhibition at 0.1 µM (468 kinases [1]; RPS6KA4(Kin.Dom.2-C-terminal)) | inhibition at 0.1 µM (468 kinases [2]) | inhibition at 0.1 µM (468 kinases [3]) | inhibition at 0.1 µM (468 kinases [4]) | inhibition at 0.1 µM (468 kinases [5]) | inhibition at 0.1 µM (468 kinases [6]; ABL1 (F317L)-phosphorylated) | inhibition at 0.1 µM (468 kinases [7]) | inhibition at 0.1 µM (468 kinases [8]) | inhibition at 0.1 µM (468 kinases [9]) | inhibition at 0.1 µM (468 kinases [10]) | inhibition at 0.1 µM (468 kinases [11]) | inhibition at 0.1 µM (468 kinases [12]) | inhibition at 0.1 µM (468 kinases [13]) | inhibition at 0.1 µM (468 kinases [14]) | inhibition at 0.1 µM (468 kinases [15]) | inhibition at 0.1 µM (468 kinases [16]) | inhibition at 0.1 µM (468 kinases [17]) | inhibition at 0.1 µM (468 kinases [18]) | inhibition at 0.1 µM (468 kinases [19]) | other results
CCN(CC)CCNC(=O)c1c(C)[nH]c(/C=C2\C(=O)Nc3ccc(CCO)cc32)c1C [Compound No. 10, (Z)—N-(2-(Diethylamino)ethyl)-5-((5-(2-hydroxyethyl)-2-oxoindolin-3-ylidene)methyl)-2,4-dimethyl-1H-pyrrole-3-carboxamide] | 8% | 0% | 0% | 10% | 31% | 6% | 22% | 40% | 0% | 5% | 0% | 57% | 29% | 86% | 0% | 0% | 70% | 0% | 24% | 5% | inhibition at 0.1 µM (468 kinases [6]; ABL1 (F317L)-nonphosphorylated): 6%; inhibition at 0.1 µM (468 kinases [20]): 0%; inhibition at 0.1 µM (468 kinases [21]): 87%; inhibition at 0.1 µM (468 kinases [22]; FLT3 -autoinhibited): 81%; inhibition at 0.1 µM (468 kinases [22]; FLT3): 96.7%; inhibition at 0.1 µM (468 kinases [23]): 0%; inhibition at 0.1 µM (468 kinases [24]): 0%; inhibition at 0.1 µM (468 kinases [25]): 31%; inhibition at 0.1 µM (468 kinases [26]): 0%; inhibition at 0.1 µM (468 kinases [27]): 0%; inhibition at 0.1 µM (468 kinases [28]; RSK2(Kin.Dom.1-N-terminal)): 39%; inhibition at 0.1 µM (468 kinases [28]; RSK2(Kin.Dom.2-C-terminal)): 54%; inhibition at 0.1 µM (468 kinases [29]): 90%; inhibition at 0.1 µM (468 kinases [30]): 15%; inhibition at 0.1 µM (468 kinases [31]): 0%; inhibition at 0.1 µM (468 kinases [32]): 80%
CCN(CC)CCNC(=O)c1c(C)[nH]c(/C=C2\C(=O)Nc3ccc(CCC(N)=O)cc32)c1C [Compound No. 16, (Z)-5-((5-(3-Amino-3-oxopropyl)-2-oxoindolin-3-ylidene)methyl)-N-(2-(diethylamino)ethyl)-2,4-dimethyl-1H-pyrrole-3-carboxamide] | 34% | 35% | 38% | 16% | 56% | 9% | 20% | 98.4% | 1% | 8% | 16% | 58% | 54% | 55% | 24% | 3% | 78% | 41% | 22% | 0% | inhibition at 0.1 µM (468 kinases [20]): 0%; inhibition at 0.1 µM (468 kinases [21]): 76%; inhibition at 0.1 µM (468 kinases [22]; FLT3 -autoinhibited): 61%; inhibition at 0.1 µM (468 kinases [22]; FLT3): 62%; inhibition at 0.1 µM (468 kinases [23]): 18%; inhibition at 0.1 µM (468 kinases [24]): 0%; inhibition at 0.1 µM (468 kinases [25]): 16%; inhibition at 0.1 µM (468 kinases [26]): 14%; inhibition at 0.1 µM (468 kinases [27]): 19%; inhibition at 0.1 µM (468 kinases [28]; RSK2(Kin.Dom.1-N-terminal)): 59%; inhibition at 0.1 µM (468 kinases [29]): 86%; inhibition at 0.1 µM (468 kinases [30]): 28%; inhibition at 0.1 µM (468 kinases [31]): 18%; inhibition at 0.1 µM (468 kinases [32]): 8%
